Source: patent publication US20210113586A1, “NEW USE AND METHODS OF MODULATING IMMUNE RESPONSES” (DIAMYD MEDICAL AB, priority 2018, published 2021)

Key:
Format in all cases: cell-based, human
[1] = tested on: responder CD4+ T cells; assay: Proliferation of anti-CD3 stimulated GABA responder CD4+ T cells from ND individuals; conditions: for effect of agonist on proliferation: 100 nM, FIG. 3f
Method: (§1) Peripheral Blood Mononuclear cells (PBMCs) are isolated from blood from donors diagnosed with Type-1 diabetes and healthy controls. Alternatively, CD4-positive cells (T-cells) are further isolated from PBMCs by e.g. MACS beads, FACS or similar technology. […] A reasonable replication, such as 3 cultures of each condition, is performed. A normalized proliferation value for each culture is then calculated by a standard proliferation measurement method, such as by CFSE staining or radioactive thymidine incorporation (requiring additional factors be added during culture) or by staining for proliferation markers.
(§2) In the FIG. 1, the proliferation of cells retrieved from 13 T1D subjects and 15 healthy controls were inspected. […] A normalized proliferation index was calculated for each culture.
(§3) The proliferation of freshly isolated human PBMCs or CD4^+ T cells was evaluated with MTT (3-(4,5-Dimethylthiazol-2-yl)-2,5-Diphenyltetrazolium Bromide) assay (Ring et al., 2012). Cells were suspended in complete medium (RPMI 1640 supplemented with 2 mM glutamine, 25 mM HEPES, 10% heat inactivated fetal bovine serum, 100 U/ml penicillin, 10 mg/ml streptomycin, 5 mM R-mercaptoethanol) in a concentration 1 million cells per milliliter. The assay was performed in 96-well plates in duplicates or triplicates, where each well was pre-coated with 3 μg/ml anti-CD3 antibody for 3-5 h at 37° C. Each well was loaded with 100,000 cells. Drugs were added to the wells at the relevant concentrations. The plate was incubated for 68 h at 37° C. (95% O2, 5% CO2) and then, a media-soluble tetrazolium dye MTT was added to a final concentration of 1 mM after which the plate was incubated for additional 4 h. The plate was then centrifuged at 2,000 RPM for 10 min to pellet the insoluble purple formazan crystals. The supernatant culture media was collected, stored at −80° C. and used for analysis of cytokines using the multiplex proximity extension assay (PEA). The formazan crystal pellet was dissolved in DMSO and the plate was read within 10 min using a Multiskan MS plate reader (Labsystems) at 550 nm. The optical density value was used as the proliferation index value. Drugs were purchased from Sigma-Aldrich or Tocris (Bristol, UK).

[2] = tested on: PBMCs from T1D individuals; assay: Proliferation of anti-CD3 stimulated PBMCs from T1D donors; conditions: GABA plus picrotoxin
Method: as §1, §2
as §3, with “The optical density value was used as the proliferation index value. Drugs were purchased from Sigma-Aldrich or Tocris (Bristol, UK).” left out

[3] = tested on: responder CD4+ T cells; assay: Multiplex PEA of cytokines released into culture medium by responder CD4+ T cells; conditions: GABA plus 100 μM picrotoxin
Method: as §3
Plasma samples, and culture media samples that were collected from plate wells at the end of the proliferation assay, were analyzed by multiplex PEA with an Olink Inflammation […] panel, targeting 92 proteins related to inflammation (Olink Proteomics, Uppsala, Sweden) as previously described (Edvinsson et al., 2017, Assarsson et al., 2014, Larsson et al., 2015, Larssen et al., 2017). Briefly, 1 μl of sample (plasma samples or cell culture media samples) or negative control was mixed with 3 μl probe solution containing a set of 92 paires DNA-oligonucleotide-conjugated antibodies. Upon recognition of a target protein by a pair of probes, the DNA oligonucletodies on the antibodies are brought in proximity and hybridize to each other, followed by enzymatic DNA polymerization to form a new DNA molecule. The newly formed DNA molecule is then amplified and quantified using a microfluidic real-time qPCR, BioMark™ HD (Fluidigm, South San Francisco, Calif., USA). The generated quantification cycle (Cq) values are normalized against spiked-in controls to convert Cq values to Normalized Protein eXpression (NPX) value on log2 scale. NPX is an arbitrary unit, which is positively correlated to protein concentration. These NPX data were then converted to linear data, using the formula 2^NPX, prior to further statistical analysis. Limit of detection (LOD) for each protein was defined as three standard deviations above the background. Proteins with levels below LOD were excluded from further data analysis.

[4] = tested on: GABAA receptors; assay: Patch-clamp single-channel current recording in CD4+ T cells; conditions: picrotoxin 100 μM; FIG. 3i
Method: GABA-activated currents were recorded by the patch-clamp technique as previously described (Bjurstom et al., 2008, Jin et al., 2011a). Extracellular recording solution contained (in mM): 145 NaCl, 3 KCl, 1 CsCl, 1 CaCl2, 1 MgCl2, 10 glucose and 10 TES; the pH was adjusted to 7.4 with NaOH. To record in the whole-cell configuration, the pipette solution contained (in mM): 136 CsCl, 20 KCl, 1 MgCl2, 3 MgATP and 10 TES; pH was adjusted to 7.3 with CsOH. The pipette solution for the cell-attached configuration contained (in mM): 69 NaCl, 5 KCl, 75 CsCl, 1 CaCl2, 1 MgCl2 and 10 TES; pH was adjusted to 7.4 with NaOH. […] The pipette potential (Vp) was −80 mV (hyperpolarizing) in the whole-cell configuration and −60 mV (depolarizing) in the cell-attached configuration.

[5] = FIG. 5b-c legend, GABA concentration and cell group not given

Compound: CCOC(OCC)P(=O)(O)CCCNCc1ccc(Cl)c(Cl)c1 [CGP52432]
- effect of antagonist on proliferation ([1]; 50 μM, FIG. 3e): ineffective

Compound: NC/C=C/C(=O)O [TACA]
- effect of agonist on proliferation [1]: inhibited the proliferation similar to GABA

Compound: NCC(CC(=O)O)c1ccc(Cl)cc1 (stereo not shown) [baclofen]
- effect of agonist on proliferation [1]: ineffective

Compound: NCc1cc(=O)[nH]o1 [muscimol]
- effect of agonist on proliferation [1]: inhibited the proliferation similar to GABA

Compound: picrotoxin [reference compound]
- effect on GABA-reduced proliferation ([2]; Example 1, FIG. 1D): reversed
- effect on GABA inhibition of proliferation ([2]; Example 2, FIG. 3b): reversed
- CCL19, 2^NPX normalized to controls, mean and SEM [3, 5]: 1.72±0.74
- CCL20, 2^NPX normalized to controls, mean and SEM [3, 5]: 1.43±0.51
- CXCL11, 2^NPX normalized to controls, mean and SEM [3, 5]: 1.55±0.51
- effect on GABA inhibition of cytokine release ([3]; FIG. 5b, c): reversed
- effect on GABA-activated single-channel currents [4]: blocked
- effect on GABA-reduced proliferation ([1]; Example 1, FIG. 1B, GABA plus picrotoxin): reversed
- effect on 500 nM GABA-induced inhibition of proliferation ([1]; picrotoxin, FIG. 3e): partially reversed
